From paper PMC6152318 (Molecules : A Journal of Synthetic Chemistry and Natural …, 2017)

What was measured:
[1] = molecular target: T1, Human serum albumin (HSA) (Homo sapiens, UniProt P02768); assay: Binding constants by quenching of HSA tryptophan fluorescence
T1 construct: Fatty acid free HSA and warfarin sodium were purchased from Sigma-Aldrich; purchased Sigma-Aldrich (St. Louis, MO, USA)
Protocol: In all experiments, the final co-solvent concentration was held below 5%. This was done to prevent conformational changes of HSA due to changes in dielectric constant of the solvent.
Steady-state fluorescence was recorded using a thermostated Safas Xenius fluorometer (Safas Monaco, Monaco) with an integrated stirrer. All studies were performed at 25 ± 1 °C using 10 nm excitation and emission slit widths. […] Measurements were performed in duplicate.
A stock solution of a single ligand was gradually added via syringe to a 2 mL of a 6 μM HSA solution placed in a quartz cell. Measurements were conducted at the excitation wavelength of 295 nm and emission was recorded in the 310–400 nm range enabling calculations of corresponding binding constants. […] Binding constants were determined according to Dufour and Dangles. A Scatchard analysis was performed assuming n identical binding sites on HSA. Values for binding constant (K), molar fluorescence intensity of the complex (f), and the stoichiometric coefficient (n) were estimated by fitting the F vs. Lt curves against Equations (1) and (2) using a least-square regression program Scientist (MicroMath, Salt Lake City, UT, USA), where F is fluorescence intensity, [L] the free ligand concentration, [Lt] the total ligand concentration, and c the total albumin concentration. […] In all cases, the inner filter effect was taken into account by using absorption of free ligands at excitation and emission wavelengths (εex and εem, respectively) (Equation (3)), where Fcorr is the fluorescence corrected for the inner filter effect, F0 is the measured fluorescence, ε is the sum of εex and εem, l = 0.65 is the optical path and c is the flavonoid concentration. (1) Fcorr=fcnK[L]/1+K[L] (2) [Lt]=[L](1+ncK/1+K[L]) (3) F0=Fcorr×10^−εlc

[2] = molecular target: Human serum albumin (HSA) IIA binding site (Homo sapiens, UniProt P02768); assay: Flavonoid fluorescence (excitation 450 nm) on HSA pre-saturated with warfarin (simultaneous binding / displacement)
Protocol: HSA was freshly dissolved in Dulbecco’s phosphate-buffered saline pH 7.4 (137 mM sodium chloride, 2.7 mM potassium chloride, 8.1 mM disodium hydrogen phosphate, 1.47 mM potassium dihydrogen phosphate) immediately before measurements. […]. In all experiments, the final co-solvent concentration was held below 5%. This was done to prevent conformational changes of HSA due to changes in dielectric constant of the solvent.
Steady-state fluorescence was recorded using a thermostated Safas Xenius fluorometer (Safas Monaco, Monaco) with an integrated stirrer. All studies were performed at 25 ± 1 °C using 10 nm excitation and emission slit widths. […] Higher concentrations of HSA and ligands were not used due to poor solubility of ligands and high influence of ligand absorption. Measurements were performed in duplicate.

[3] = Flavonoid fluorescence in buffer solution without HSA
[4] = HSA 0-92% saturated with warfarin

Sequence of Human serum albumin (HSA) IIA binding site (P02768 25-609): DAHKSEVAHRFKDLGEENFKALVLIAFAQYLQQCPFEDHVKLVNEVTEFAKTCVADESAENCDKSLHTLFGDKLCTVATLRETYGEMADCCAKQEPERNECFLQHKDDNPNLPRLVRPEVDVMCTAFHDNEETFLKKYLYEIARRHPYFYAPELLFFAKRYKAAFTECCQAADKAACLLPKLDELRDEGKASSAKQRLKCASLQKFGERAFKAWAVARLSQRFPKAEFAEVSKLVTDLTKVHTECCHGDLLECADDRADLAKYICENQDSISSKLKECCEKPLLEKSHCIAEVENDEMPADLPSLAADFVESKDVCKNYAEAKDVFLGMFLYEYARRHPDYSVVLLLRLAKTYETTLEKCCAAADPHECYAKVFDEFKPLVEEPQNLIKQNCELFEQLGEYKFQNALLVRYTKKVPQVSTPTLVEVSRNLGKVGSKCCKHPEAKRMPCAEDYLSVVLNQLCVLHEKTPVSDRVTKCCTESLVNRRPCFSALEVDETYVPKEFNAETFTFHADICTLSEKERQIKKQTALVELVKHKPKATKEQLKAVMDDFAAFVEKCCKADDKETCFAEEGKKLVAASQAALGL
T1 sequence (P02768 25-609): as above

O=c1cc(-c2ccc(O)c(O)c2)oc2cc(O)cc(O)c12 [Luteolin]
Kd [1]: 8.2 µM
Effect of warfarin on flavonoid Fmax (maximum fluorescence) [2, 4]: no noticeable change
Effect of warfarin on flavonoid cmax (concentration needed to achieve Fmax) [2, 4]: no noticeable change
Absolute fluorescence intensity ([2]; flavonoid 2,00 uM, 0% occupied HSA): 3,5310
Absolute fluorescence intensity ([2]; flavonoid 2,00 uM, 22% occupied HSA): 3,0516
Absolute fluorescence intensity ([2]; flavonoid 2,00 uM, 38% occupied HSA): 3,2663
Absolute fluorescence intensity ([2]; flavonoid 2,00 uM, 63% occupied HSA): 2,9688
Absolute fluorescence intensity ([2]; flavonoid 2,00 uM, 92% occupied HSA): 3,0838
Absolute fluorescence intensity ([2]; flavonoid 4,00 uM, 0% occupied HSA): 5,6541
Absolute fluorescence intensity ([2]; flavonoid 4,00 uM, 22% occupied HSA): 5,0287
Absolute fluorescence intensity ([2]; flavonoid 4,00 uM, 38% occupied HSA): 5,0961
Absolute fluorescence intensity ([2]; flavonoid 4,00 uM, 63% occupied HSA): 4,7527
Absolute fluorescence intensity ([2]; flavonoid 4,00 uM, 92% occupied HSA): 4,7445
Absolute fluorescence intensity ([2]; flavonoid 6,00 uM, 0% occupied HSA): 7,6599
Absolute fluorescence intensity ([2]; flavonoid 6,00 uM, 22% occupied HSA): 6,8528
Absolute fluorescence intensity ([2]; flavonoid 6,00 uM, 38% occupied HSA): 6,8106
Absolute fluorescence intensity ([2]; flavonoid 6,00 uM, 63% occupied HSA): 6,3873
Absolute fluorescence intensity ([2]; flavonoid 6,00 uM, 92% occupied HSA): 6,5159
Absolute fluorescence intensity ([2]; flavonoid 7,99 uM, 0% occupied HSA): 9,4059
Absolute fluorescence intensity ([2]; flavonoid 7,99 uM, 22% occupied HSA): 8,8217
Absolute fluorescence intensity ([2]; flavonoid 7,99 uM, 38% occupied HSA): 8,5002
Absolute fluorescence intensity ([2]; flavonoid 7,99 uM, 63% occupied HSA): 7,8443
Absolute fluorescence intensity ([2]; flavonoid 7,99 uM, 92% occupied HSA): 8,1746
Absolute fluorescence intensity ([2]; flavonoid 11,98 uM, 0% occupied HSA): 11,5397
Absolute fluorescence intensity ([2]; flavonoid 11,98 uM, 22% occupied HSA): 11,3861
Absolute fluorescence intensity ([2]; flavonoid 11,98 uM, 38% occupied HSA): 11,3711
Absolute fluorescence intensity ([2]; flavonoid 11,98 uM, 63% occupied HSA): 10,9648
Absolute fluorescence intensity ([2]; flavonoid 11,98 uM, 92% occupied HSA): 10,4774
Absolute fluorescence intensity ([2]; flavonoid 15,97 uM, 0% occupied HSA): 14,0865
Absolute fluorescence intensity ([2]; flavonoid 15,97 uM, 22% occupied HSA): 14,1260
Absolute fluorescence intensity ([2]; flavonoid 15,97 uM, 38% occupied HSA): 13,9507
Absolute fluorescence intensity ([2]; flavonoid 15,97 uM, 63% occupied HSA): 13,0693
Absolute fluorescence intensity ([2]; flavonoid 15,97 uM, 92% occupied HSA): 12,9194
Absolute fluorescence intensity ([2]; flavonoid 23,93 uM, 0% occupied HSA): 17,9442
Absolute fluorescence intensity ([2]; flavonoid 23,93 uM, 22% occupied HSA): 17,8085
Absolute fluorescence intensity ([2]; flavonoid 23,93 uM, 38% occupied HSA): 17,8530
Absolute fluorescence intensity ([2]; flavonoid 23,93 uM, 63% occupied HSA): 17,0150
Absolute fluorescence intensity ([2]; flavonoid 23,93 uM, 92% occupied HSA): 16,3518
Absolute fluorescence intensity ([2]; flavonoid 31,87 uM, 0% occupied HSA): 20,8667
Absolute fluorescence intensity ([2]; flavonoid 31,87 uM, 22% occupied HSA): 20,4964
Absolute fluorescence intensity ([2]; flavonoid 31,87 uM, 38% occupied HSA): 20,5131
Absolute fluorescence intensity ([2]; flavonoid 31,87 uM, 63% occupied HSA): 19,6701
Absolute fluorescence intensity ([2]; flavonoid 31,87 uM, 92% occupied HSA): 19,1278
Absolute fluorescence intensity ([2]; flavonoid 39,80 uM, 0% occupied HSA): 22,9301
Absolute fluorescence intensity ([2]; flavonoid 39,80 uM, 22% occupied HSA): 22,5924
Absolute fluorescence intensity ([2]; flavonoid 39,80 uM, 38% occupied HSA): 22,2082
Absolute fluorescence intensity ([2]; flavonoid 39,80 uM, 63% occupied HSA): 21,6524
Absolute fluorescence intensity ([2]; flavonoid 39,80 uM, 92% occupied HSA): 20,8642
Absolute fluorescence intensity ([2]; flavonoid 47,71 uM, 0% occupied HSA): 24,5206
Absolute fluorescence intensity ([2]; flavonoid 47,71 uM, 22% occupied HSA): 23,8063
Absolute fluorescence intensity ([2]; flavonoid 47,71 uM, 38% occupied HSA): 23,5737
Absolute fluorescence intensity ([2]; flavonoid 47,71 uM, 63% occupied HSA): 23,1678
Absolute fluorescence intensity ([2]; flavonoid 47,71 uM, 92% occupied HSA): 22,5713
Absolute fluorescence intensity ([2]; flavonoid 63,49 uM, 0% occupied HSA): 26,4505
Absolute fluorescence intensity ([2]; flavonoid 63,49 uM, 22% occupied HSA): 25,9034
Absolute fluorescence intensity ([2]; flavonoid 63,49 uM, 38% occupied HSA): 25,4318
Absolute fluorescence intensity ([2]; flavonoid 63,49 uM, 63% occupied HSA): 24,8572
Absolute fluorescence intensity ([2]; flavonoid 63,49 uM, 92% occupied HSA): 24,6423
Absolute fluorescence intensity ([2]; flavonoid 79,21 uM, 0% occupied HSA): 26,9488
Absolute fluorescence intensity ([2]; flavonoid 79,21 uM, 22% occupied HSA): 26,5002
Absolute fluorescence intensity ([2]; flavonoid 79,21 uM, 38% occupied HSA): 26,5136
Absolute fluorescence intensity ([2]; flavonoid 79,21 uM, 63% occupied HSA): 25,8191
Absolute fluorescence intensity ([2]; flavonoid 79,21 uM, 92% occupied HSA): 25,3909
Absolute fluorescence intensity ([2]; flavonoid 98,77 uM, 0% occupied HSA): 27,2939
Absolute fluorescence intensity ([2]; flavonoid 98,77 uM, 22% occupied HSA): 27,2804
Absolute fluorescence intensity ([2]; flavonoid 98,77 uM, 38% occupied HSA): 26,9116
Absolute fluorescence intensity ([2]; flavonoid 98,77 uM, 63% occupied HSA): 26,1311
Absolute fluorescence intensity ([2]; flavonoid 98,77 uM, 92% occupied HSA): 26,2198
Absolute fluorescence intensity ([2]; flavonoid 118,23 uM, 0% occupied HSA): 27,1078
Absolute fluorescence intensity ([2]; flavonoid 118,23 uM, 22% occupied HSA): 27,1338
Absolute fluorescence intensity ([2]; flavonoid 118,23 uM, 38% occupied HSA): 26,9198
Absolute fluorescence intensity ([2]; flavonoid 118,23 uM, 63% occupied HSA): 26,3501
Absolute fluorescence intensity ([2]; flavonoid 118,23 uM, 92% occupied HSA): 26,3929
Absolute fluorescence intensity ([2]; flavonoid 137,59 uM, 0% occupied HSA): 26,3217
Absolute fluorescence intensity ([2]; flavonoid 137,59 uM, 22% occupied HSA): 26,7053
Absolute fluorescence intensity ([2]; flavonoid 137,59 uM, 38% occupied HSA): 26,6416
Absolute fluorescence intensity ([2]; flavonoid 137,59 uM, 63% occupied HSA): 26,1054
Absolute fluorescence intensity ([2]; flavonoid 137,59 uM, 92% occupied HSA): 26,3918
Absolute fluorescence intensity ([2]; flavonoid 156,86 uM, 0% occupied HSA): 25,8093
Absolute fluorescence intensity ([2]; flavonoid 156,86 uM, 22% occupied HSA): 26,0626
Absolute fluorescence intensity ([2]; flavonoid 156,86 uM, 38% occupied HSA): 26,1509
Absolute fluorescence intensity ([2]; flavonoid 156,86 uM, 63% occupied HSA): 25,5239
Absolute fluorescence intensity ([2]; flavonoid 156,86 uM, 92% occupied HSA): 25,7773
Absolute fluorescence intensity ([3]; flavonoid 2,00 uM): 0,5984
Absolute fluorescence intensity ([3]; flavonoid 4,00 uM): 0,7341
Absolute fluorescence intensity ([3]; flavonoid 7,99 uM): 0,8094
Absolute fluorescence intensity ([3]; flavonoid 15,97 uM): 0,8481
Absolute fluorescence intensity ([3]; flavonoid 31,87 uM): 1,0538
Absolute fluorescence intensity ([3]; flavonoid 47,71 uM): 1,3400
Absolute fluorescence intensity ([3]; flavonoid 63,49 uM): 1,5045
Absolute fluorescence intensity ([3]; flavonoid 79,21 uM): 1,7483
Absolute fluorescence intensity ([3]; flavonoid 118,23 uM): 2,2774
Absolute fluorescence intensity ([3]; flavonoid 156,86 uM): 2,8851
